Five molecules from ChEMBL document CHEMBL5352421, “Identification of novel piperazine-tethered phthalazines as selective CDK1 inhibitors endowed with in vitro anticancer activity toward the pancreatic cancer” (Eur J Med Chem, 2022) can be followed below.

For assay [1], the system named is G-361. The assay can be described thus: Antiproliferative activity against human G-361 cells assessed as growth inhibition incubated at 10 uM for 24 hrs by MTT assay relative to control. Format: functional. Conditions: read-out: GI. For orientation: Tetrazolium dyes change colour on reduction, which living cells bring about.
In assay [2] the target is Cyclin-dependent kinase 2 (Homo sapiens, UniProt P24941). The experiment in a line: Inhibition of CDK2 (unknown origin) by FRET assay.
Assay [3] addresses Insulin-like growth factor 1 receptor (Homo sapiens, UniProt P08069). The assay can be described thus: Inhibition of IGF1R (unknown origin) by FRET assay.
Assay [4] is described as follows: Antiproliferative activity against human PL45 cells assessed as growth inhibition incubated for 24 hrs by MTT assay. Format: functional, cell-based. Conditions: PL45, 24 h.
Assay [5] relates to HT-29. The assay can be described thus: Antiproliferative activity against human HT-29 cells assessed as growth inhibition incubated at 10 uM for 24 hrs by MTT assay relative to control. In kind it is functional. Conditions: read-out: GI.
For assay [6], the system named is A-375. The experiment in a line: Antiproliferative activity against human A-375 cells assessed as growth inhibition incubated at 10 uM for 24 hrs by MTT assay relative to control. Conditions: read-out: GI. Format: functional.
For assay [7], the system named is SK-MEL-1. The experiment in a line: Antiproliferative activity against human SK-MEL-1 cells assessed as growth inhibition incubated at 10 uM for 24 hrs by MTT assay relative to control. In kind it is functional. Conditions: read-out: GI.
Assay [8] concerns the target T1, Tyrosine-protein kinase receptor UFO (Homo sapiens, UniProt P30530).
T1 sequence (P30530 whole entry): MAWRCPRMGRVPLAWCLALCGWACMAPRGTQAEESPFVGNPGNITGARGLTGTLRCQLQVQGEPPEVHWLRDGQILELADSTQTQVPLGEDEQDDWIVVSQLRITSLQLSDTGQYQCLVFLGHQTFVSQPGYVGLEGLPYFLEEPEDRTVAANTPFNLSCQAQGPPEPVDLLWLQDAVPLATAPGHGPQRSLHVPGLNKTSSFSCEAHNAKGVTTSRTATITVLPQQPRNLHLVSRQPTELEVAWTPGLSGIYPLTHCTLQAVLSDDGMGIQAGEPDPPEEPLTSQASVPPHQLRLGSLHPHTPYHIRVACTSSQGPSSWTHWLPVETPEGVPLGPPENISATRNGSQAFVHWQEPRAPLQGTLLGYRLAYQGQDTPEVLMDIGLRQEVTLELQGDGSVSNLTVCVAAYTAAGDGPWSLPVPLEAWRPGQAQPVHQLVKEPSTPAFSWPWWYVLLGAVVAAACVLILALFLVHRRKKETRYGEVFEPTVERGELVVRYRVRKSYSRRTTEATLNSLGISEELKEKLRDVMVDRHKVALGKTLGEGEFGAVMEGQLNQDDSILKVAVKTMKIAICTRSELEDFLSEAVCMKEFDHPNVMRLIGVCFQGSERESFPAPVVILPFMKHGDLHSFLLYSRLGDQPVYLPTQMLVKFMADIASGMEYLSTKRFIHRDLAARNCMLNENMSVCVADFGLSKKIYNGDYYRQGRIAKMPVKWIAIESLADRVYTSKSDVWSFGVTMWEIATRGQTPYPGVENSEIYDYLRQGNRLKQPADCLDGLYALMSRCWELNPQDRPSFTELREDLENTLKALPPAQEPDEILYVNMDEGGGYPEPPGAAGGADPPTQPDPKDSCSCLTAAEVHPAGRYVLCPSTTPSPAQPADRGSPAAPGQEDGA
The experiment in a line: Inhibition of AXL (unknown origin) by FRET assay.

A short description of assay [9]: Antiproliferative activity against human PL45 cells assessed as growth inhibition incubated at 10 uM for 24 hrs by MTT assay relative to control. In kind it is functional. The note with it: read-out: GI.
Assay [10] concerns the target Fibroblast growth factor receptor (Homo sapiens, UniProt P22607+P11362+P22455+P21802). The assay can be described thus: Inhibition of FGFR (unknown origin) by FRET assay. Format: protein assay.
Assay [11] deals with BT-549. The experiment in a line: Antiproliferative activity against human BT-549 cells assessed as growth inhibition incubated at 10 uM for 24 hrs by MTT assay relative to control. Conditions: read-out: GI. Format: functional.
For assay [12], the system named is T84. The assay can be described thus: Antiproliferative activity against human T84 cells assessed as growth inhibition incubated at 10 uM for 24 hrs by MTT assay relative to control. In kind it is functional. Conditions: read-out: GI.
A short description of assay [13]: Antiproliferative activity against human MDA-PATC53 cells assessed as growth inhibition incubated for 24 hrs by MTT assay. Format: functional, cell-based. Conditions: MDA-PATC53, 24 h.
Assay [14] concerns the target Tyrosine-protein kinase JAK1 (Homo sapiens, UniProt P23458). The experiment in a line: Inhibition of JAK1 (unknown origin) by FRET assay.
The nature of assay [15]: Selectivity index, ratio of IC50 for CDK5 (unknown origin) to CDK1 (unknown origin).
Assay [16] is described as follows: Antiproliferative activity against human MDA-PATC53 cells assessed as growth inhibition incubated at 10 uM for 24 hrs by MTT assay relative to control. In kind it is functional. The note with it: read-out: GI.
In assay [17] the target is Cyclin-dependent kinase 1 (Homo sapiens, UniProt P06493). The experiment in a line: Inhibition of CDK1 (unknown origin) by FRET assay.
Sequence of Cyclin-dependent kinase 1 (P06493 whole entry): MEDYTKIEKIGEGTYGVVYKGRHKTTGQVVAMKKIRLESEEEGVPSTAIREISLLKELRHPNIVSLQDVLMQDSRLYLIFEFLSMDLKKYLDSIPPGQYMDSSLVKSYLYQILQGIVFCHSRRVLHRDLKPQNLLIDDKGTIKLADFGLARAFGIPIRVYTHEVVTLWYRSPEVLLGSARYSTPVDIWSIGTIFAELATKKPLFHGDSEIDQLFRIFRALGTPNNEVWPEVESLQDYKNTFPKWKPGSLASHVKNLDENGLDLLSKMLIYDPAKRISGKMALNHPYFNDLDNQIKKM
Assay [18] relates to MCF7. The experiment in a line: Antiproliferative activity against human MCF7 cells assessed as growth inhibition incubated at 10 uM for 24 hrs by MTT assay relative to control. In kind it is functional. Conditions: read-out: GI.
Assay [19] has as its target Cyclin-dependent kinase 5 (Homo sapiens, UniProt Q00535). The assay can be described thus: Inhibition of CDK5 (unknown origin) by FRET assay.
Assay [20] deals with MOLT-4. The experiment in a line: Antiproliferative activity against human MOLT-4 cells assessed as growth inhibition incubated at 10 uM for 24 hrs by MTT assay relative to control. Format: functional. The note with it: read-out: GI.
The nature of assay [21]: Selectivity index, ratio of IC50 for CDK2 (unknown origin) to CDK1 (unknown origin).
Assay [22] concerns the target Protein-tyrosine kinase 2-beta (Homo sapiens, UniProt Q14289). The experiment in a line: Inhibition of PTK2B (unknown origin) by FRET assay.
The test system of assay [23] is KG-1. The experiment in a line: Antiproliferative activity against human KG-1 cells assessed as growth inhibition incubated at 10 uM for 24 hrs by MTT assay relative to control. Conditions: read-out: GI. In kind it is functional.
The target of assay [24] is Serine/threonine-protein kinase B-raf (Homo sapiens, UniProt P15056). The experiment in a line: Inhibition of BRAF (unknown origin) by FRET assay.
Sequence of Serine/threonine-protein kinase B-raf (P15056 whole entry): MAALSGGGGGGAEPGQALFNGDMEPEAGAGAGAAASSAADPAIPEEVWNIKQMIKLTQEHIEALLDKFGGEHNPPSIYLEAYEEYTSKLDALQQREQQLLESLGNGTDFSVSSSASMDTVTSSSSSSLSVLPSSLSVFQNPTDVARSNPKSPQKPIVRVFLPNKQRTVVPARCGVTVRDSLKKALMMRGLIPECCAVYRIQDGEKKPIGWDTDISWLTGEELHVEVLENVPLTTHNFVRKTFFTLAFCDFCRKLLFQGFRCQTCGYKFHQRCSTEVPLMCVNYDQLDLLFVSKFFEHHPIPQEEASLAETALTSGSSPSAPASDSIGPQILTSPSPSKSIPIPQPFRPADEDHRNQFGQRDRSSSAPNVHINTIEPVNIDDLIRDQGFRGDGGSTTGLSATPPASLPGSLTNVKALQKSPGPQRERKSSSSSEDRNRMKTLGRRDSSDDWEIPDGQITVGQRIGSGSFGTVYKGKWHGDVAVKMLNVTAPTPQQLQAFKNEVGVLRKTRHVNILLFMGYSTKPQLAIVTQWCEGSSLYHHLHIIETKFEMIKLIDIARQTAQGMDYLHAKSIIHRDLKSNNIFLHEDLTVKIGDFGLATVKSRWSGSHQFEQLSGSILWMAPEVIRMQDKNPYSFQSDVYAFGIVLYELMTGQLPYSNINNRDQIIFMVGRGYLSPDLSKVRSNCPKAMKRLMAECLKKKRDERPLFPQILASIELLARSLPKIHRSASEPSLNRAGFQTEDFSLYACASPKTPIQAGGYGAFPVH

Structures are written as SMILES.

Sequence of Insulin-like growth factor 1 receptor (P08069 31-736 limits assumed): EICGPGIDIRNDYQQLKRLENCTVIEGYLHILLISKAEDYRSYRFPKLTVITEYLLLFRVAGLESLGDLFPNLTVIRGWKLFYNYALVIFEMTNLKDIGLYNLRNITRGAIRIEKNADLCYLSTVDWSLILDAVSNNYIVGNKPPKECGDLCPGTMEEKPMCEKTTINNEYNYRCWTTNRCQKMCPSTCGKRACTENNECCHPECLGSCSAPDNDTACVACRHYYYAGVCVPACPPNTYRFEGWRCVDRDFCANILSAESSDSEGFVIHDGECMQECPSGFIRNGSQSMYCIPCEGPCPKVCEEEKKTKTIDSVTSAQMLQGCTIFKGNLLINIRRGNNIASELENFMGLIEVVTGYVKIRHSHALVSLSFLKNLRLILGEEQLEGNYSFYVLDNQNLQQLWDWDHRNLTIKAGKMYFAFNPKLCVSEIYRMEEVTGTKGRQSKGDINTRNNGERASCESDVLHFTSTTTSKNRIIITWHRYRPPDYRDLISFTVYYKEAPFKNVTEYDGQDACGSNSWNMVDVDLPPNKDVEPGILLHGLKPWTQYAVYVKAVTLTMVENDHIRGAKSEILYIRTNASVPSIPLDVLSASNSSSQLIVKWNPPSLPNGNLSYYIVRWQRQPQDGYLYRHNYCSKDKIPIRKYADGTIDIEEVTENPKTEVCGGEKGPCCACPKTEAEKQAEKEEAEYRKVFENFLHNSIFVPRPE
Sequence of Insulin-like growth factor 1 receptor (P08069 741-1367 limits assumed): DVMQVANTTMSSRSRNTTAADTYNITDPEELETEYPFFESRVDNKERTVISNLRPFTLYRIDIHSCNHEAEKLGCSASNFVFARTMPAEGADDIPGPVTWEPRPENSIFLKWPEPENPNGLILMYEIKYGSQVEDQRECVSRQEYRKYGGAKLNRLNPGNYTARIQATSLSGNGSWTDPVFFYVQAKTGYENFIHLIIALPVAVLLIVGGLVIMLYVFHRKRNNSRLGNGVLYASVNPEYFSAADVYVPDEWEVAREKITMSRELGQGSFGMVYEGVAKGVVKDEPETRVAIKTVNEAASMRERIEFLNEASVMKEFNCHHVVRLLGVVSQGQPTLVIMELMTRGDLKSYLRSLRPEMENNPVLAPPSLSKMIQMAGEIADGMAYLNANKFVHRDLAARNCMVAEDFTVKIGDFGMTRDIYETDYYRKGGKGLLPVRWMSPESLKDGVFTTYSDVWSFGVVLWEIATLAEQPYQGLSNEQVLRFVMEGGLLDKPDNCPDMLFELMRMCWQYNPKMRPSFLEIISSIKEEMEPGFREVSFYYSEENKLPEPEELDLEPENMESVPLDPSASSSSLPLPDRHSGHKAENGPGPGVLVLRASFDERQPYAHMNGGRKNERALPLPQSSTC
Sequence of Cyclin-dependent kinase 5 (Q00535 whole entry): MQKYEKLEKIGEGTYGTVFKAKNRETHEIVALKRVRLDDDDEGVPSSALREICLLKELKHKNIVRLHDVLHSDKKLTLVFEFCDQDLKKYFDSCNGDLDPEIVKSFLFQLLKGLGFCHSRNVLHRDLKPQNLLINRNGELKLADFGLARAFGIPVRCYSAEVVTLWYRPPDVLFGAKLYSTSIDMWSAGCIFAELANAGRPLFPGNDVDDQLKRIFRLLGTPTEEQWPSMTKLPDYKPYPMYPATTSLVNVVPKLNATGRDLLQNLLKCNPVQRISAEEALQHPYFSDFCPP
Sequence of Protein-tyrosine kinase 2-beta (Q14289 whole entry): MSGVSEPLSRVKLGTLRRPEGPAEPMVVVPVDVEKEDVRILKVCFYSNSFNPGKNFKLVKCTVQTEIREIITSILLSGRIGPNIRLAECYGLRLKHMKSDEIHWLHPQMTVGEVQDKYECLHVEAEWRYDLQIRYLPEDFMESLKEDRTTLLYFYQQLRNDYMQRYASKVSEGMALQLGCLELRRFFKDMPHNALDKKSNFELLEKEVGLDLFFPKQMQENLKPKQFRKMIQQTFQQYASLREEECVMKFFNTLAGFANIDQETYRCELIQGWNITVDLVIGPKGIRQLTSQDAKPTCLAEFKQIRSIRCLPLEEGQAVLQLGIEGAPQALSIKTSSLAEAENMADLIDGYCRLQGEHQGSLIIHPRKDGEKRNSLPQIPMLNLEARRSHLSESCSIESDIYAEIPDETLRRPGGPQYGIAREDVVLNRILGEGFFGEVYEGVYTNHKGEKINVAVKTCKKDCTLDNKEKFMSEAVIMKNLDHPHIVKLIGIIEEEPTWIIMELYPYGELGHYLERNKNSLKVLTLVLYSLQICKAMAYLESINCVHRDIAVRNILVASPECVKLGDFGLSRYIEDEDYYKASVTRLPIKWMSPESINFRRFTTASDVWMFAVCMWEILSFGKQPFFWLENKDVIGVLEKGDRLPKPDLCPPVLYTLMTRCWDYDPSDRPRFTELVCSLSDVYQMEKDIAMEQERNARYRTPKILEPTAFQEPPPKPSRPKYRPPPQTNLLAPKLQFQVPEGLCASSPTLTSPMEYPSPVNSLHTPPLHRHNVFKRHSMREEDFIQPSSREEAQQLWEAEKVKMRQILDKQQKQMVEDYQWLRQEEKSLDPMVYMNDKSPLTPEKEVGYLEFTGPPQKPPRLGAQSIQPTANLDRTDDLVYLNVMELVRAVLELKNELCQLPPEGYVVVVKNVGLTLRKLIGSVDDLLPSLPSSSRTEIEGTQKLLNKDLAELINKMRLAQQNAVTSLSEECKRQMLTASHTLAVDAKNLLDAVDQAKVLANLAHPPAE
Sequence of Tyrosine-protein kinase JAK1 (P23458 whole entry): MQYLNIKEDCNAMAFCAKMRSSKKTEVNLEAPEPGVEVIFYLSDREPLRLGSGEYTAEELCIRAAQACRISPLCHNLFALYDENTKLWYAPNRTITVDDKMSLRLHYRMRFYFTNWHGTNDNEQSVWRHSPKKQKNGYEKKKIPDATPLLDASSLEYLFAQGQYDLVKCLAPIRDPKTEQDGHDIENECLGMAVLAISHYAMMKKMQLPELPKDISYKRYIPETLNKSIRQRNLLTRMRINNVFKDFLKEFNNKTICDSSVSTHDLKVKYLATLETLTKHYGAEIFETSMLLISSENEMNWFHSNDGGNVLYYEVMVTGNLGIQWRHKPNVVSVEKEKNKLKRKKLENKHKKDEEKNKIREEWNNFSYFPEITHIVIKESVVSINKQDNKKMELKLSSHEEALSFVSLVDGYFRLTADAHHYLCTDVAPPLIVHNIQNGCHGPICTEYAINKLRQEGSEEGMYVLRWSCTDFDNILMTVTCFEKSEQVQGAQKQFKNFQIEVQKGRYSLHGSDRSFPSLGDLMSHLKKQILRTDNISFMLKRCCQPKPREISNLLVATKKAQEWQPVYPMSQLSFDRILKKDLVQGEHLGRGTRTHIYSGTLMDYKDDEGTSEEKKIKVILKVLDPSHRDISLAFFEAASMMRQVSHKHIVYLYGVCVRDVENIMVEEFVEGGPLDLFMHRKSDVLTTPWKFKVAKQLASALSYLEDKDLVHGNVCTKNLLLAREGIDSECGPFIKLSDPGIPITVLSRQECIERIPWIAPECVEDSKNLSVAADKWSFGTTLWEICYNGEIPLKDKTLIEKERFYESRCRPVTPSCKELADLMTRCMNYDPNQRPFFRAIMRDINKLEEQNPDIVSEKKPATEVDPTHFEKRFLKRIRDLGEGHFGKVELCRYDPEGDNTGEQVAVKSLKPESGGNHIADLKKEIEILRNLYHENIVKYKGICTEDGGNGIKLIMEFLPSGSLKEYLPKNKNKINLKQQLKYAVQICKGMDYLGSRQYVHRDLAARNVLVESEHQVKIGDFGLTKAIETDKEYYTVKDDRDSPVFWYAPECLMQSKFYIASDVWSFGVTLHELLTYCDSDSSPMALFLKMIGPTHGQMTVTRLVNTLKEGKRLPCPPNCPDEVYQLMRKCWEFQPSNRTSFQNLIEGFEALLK

In the case of `COc1ccc(Cc2nnc(N3CCN(C(=O)Nc4ccc(OC)cc4)CC3)c3ccccc23)cc1`, the inhibition of growth at 10 µM in assay [1] worked out at 49%; in [5] it was 32.1%; in [6] it was 25.8%; in [7], 39%; in [9], 66.1%; in assay [11], 50.3%. Further, the inhibition of growth at 10 µM in assay [12] is 57.5%; in assay [16] it was 73.1%; in assay [18], 24.2%; in assay [20], 25.4%; in assay [23], 0.31%. The IC50 (as a rule, the concentration that inhibits the measured activity by half) in assay [2] came to 0.345 µM; in assay [3] it was 0.865 µM; in [4], 5.09 µM; in assay [8], 4.74 µM; in assay [10], 3.512 µM; in assay [13], 4.12 µM. For the same molecule, the IC50 in assay [14] was 1.57 µM; in [17] it was 0.052 µM; in [19] it was 0.14 µM; in assay [22] it was 4.82 µM; in assay [24], 3.7 µM. Besides, the Ratio IC50 in [15] is 2.7; in assay [21], 6.63.
For `COc1ccc(NC(=O)N2CCN(c3nnc(Cc4ccccc4)c4ccccc34)CC2)cc1`, the inhibition of growth at 10 µM in assay [1] is 25.7%; in [5], 54.1%; in [6] it was 34.9%; in assay [7], 54.3%; in assay [9], 71.5%; in assay [11], 43.9%. For the same molecule, the inhibition of growth at 10 µM was found to be 48% in assay [12]; 85.2% in assay [16]; 34% in assay [18]; 52.9% in assay [20]; 71.3% in [23]. Also, the IC50 was 0.108 µM in [2]; 4.26 µM in [3]; 4.6 µM in [4]; 2.33 µM in [8]; 4.567 µM in assay [10]; 1.7 µM in assay [13]. Also, the IC50 in [14] was found to be 8.5 µM; in [17], 0.0665 µM; in [19] it was 0.28 µM; in [22], 7.25 µM; in assay [24] it was 2.43 µM. For the same molecule, the figures for the Ratio IC50 in assay [15] and in [21] were 4.22 and 1.63, respectively.
`S=C(Nc1ccc(Cl)cc1)N1CCN(c2nnc(Cc3ccccc3)c3ccccc23)CC1`: the inhibition of growth at 10 µM turned out to be 1.08% in assay [1]; 10.8% in assay [5]; 8.39% in [6]; 5.4% in assay [7]; 64.1% in assay [9]; 18.6% in assay [11]. The inhibition of growth at 10 µM was determined as 12.2% in assay [12]; 49.3% in assay [16]; 7.64% in assay [18]; 19.6% in assay [20]; 8.92% in assay [23]. For the same molecule, the IC50 in assay [2] was found to be 0.341 µM; in [3] it was 6.3 µM; in assay [4], 6.75 µM; in [8], 3.63 µM; in assay [10] it was 5.278 µM; in assay [13], 11.9 µM. Also, the IC50 in assay [14] came to 6.61 µM; in assay [17], 0.109 µM; in assay [19] it was 0.358 µM; in [22], 5.21 µM; in assay [24], 4.99 µM. Moreover, the Ratio IC50 in assay [15] was determined as 3.29; in assay [21], 3.13.
In the case of `COc1ccc(NC(=S)N2CCN(c3nnc(Cc4ccccc4)c4ccccc34)CC2)cc1`, the inhibition of growth at 10 µM in assay [1] came to 24.6%; in assay [5], 21.9%; in assay [6], 11.2%; in assay [7], 6.64%; in assay [9], 49.6%; in assay [11], 8.65%. The inhibition of growth at 10 µM in assay [12] was determined as 9.67%; in assay [16] it was 49%; in [18], 10.1%; in [20], 14.2%; in assay [23], 1.36%. Besides, the IC50 in assay [2] was determined as 0.308 µM; in assay [3] it was 8.63 µM; in assay [4], 12.5 µM; in assay [8], 4.42 µM; in [10] it was 5.517 µM; in assay [13], 10.2 µM. The 50% inhibitory concentration (IC50) in assay [14] worked out at 2.54 µM; in assay [17] it was 0.126 µM; in [19], 0.498 µM; in assay [22], 3.64 µM; in assay [24], 4.49 µM. Besides, the Ratio IC50 in assay [15] was determined as 3.94; in assay [21], 2.43.
Consider `COc1ccc(C(=O)N2CCN(c3nnc(Cc4ccccc4)c4ccccc34)CC2)cc1`, for which the inhibition of growth at 10 µM in assay [1] came out at 3.45%; in [5], 1.58%; in assay [6], 5.3%; in assay [7] it was 11.8%; in assay [9], 66.7%; in [11], 5.26%. For the same molecule, the inhibition of growth at 10 µM came out at 2% in assay [12]; 42% in assay [16]; 4.09% in assay [18]; 1.02% in [20]; 0.91% in assay [23]. The IC50 in assay [2] was 0.301 µM; in assay [3], 4.08 µM; in assay [4] it was 4.85 µM; in assay [8], 1.52 µM; in assay [10], 8.605 µM; in assay [13], 14.3 µM. Further, the half-maximal inhibitory concentration (IC50) in assay [14] was 5.55 µM; in assay [17], 0.0831 µM; in assay [19] it was 0.606 µM; in [22], 6.38 µM; in [24] it was 4.67 µM. For the same molecule, the values for the Ratio IC50 in assay [15] and in assay [21] were 7.29 and 3.62, respectively.
